Data published in patent publication US20030171218A1, “Substituted 3-heteroaryl(amino- or oxy)pyrrolidin-2-ones, their preparation and use as herbicides or plant growth regulators” (priority 2001, published 2003).

Legend:
[1] = test system: weed plants such as Digitaria sanguinalis, Echinochloa crus-galli, Setaria faberi, Setaria viridis, Sorghum halepense, Abutilon theophrasti, Amaranthum …; test: Pre-emergence effect on weeds (greenhouse pot test); type: in vivo, monocotyledonous and dicotyledonous weed plants; conditions: application rate of 1 kg or less of active substance per hectare; scored visually after 3 to 4 weeks by comparison with untreated controls
Description: Seeds or rhizome pieces of monocotyledonous and dicotyledonous weed plants are placed in sandy loam soil in plastic pots and covered with soil. The compounds according to the invention which are formulated in the form of wettable powders or emulsion concentrates are then applied to the surface of the soil cover in the form of aqueous suspensions or emulsions at an application rate of 600 to 800 l of water/ha (converted), in various dosages.
After the treatment, the pots are placed in a greenhouse and kept under good growth conditions for the weeds. After the test plants have emerged, the damage to the plants or the negative effect on the emergence is scored visually after a test period of 3 to 4 weeks by comparison with untreated controls. As shown by the test results, compounds according to the invention have good herbicidal pre-emergence activity against a broad spectrum of weed grasses and broad-leafed weeds.

[2] = test system: harmful plants such as Digitaria sanguinalis, Echinochloa crus-galli, Setaria faberi, Setaria viridis, Sorghum halepense, Abutilon theophrasti, Amaranthum …; test: Post-emergence effect on weeds (greenhouse pot test); type: in vivo, monocotyledonous and dicotyledonous weeds; conditions: application rate of 1 kg and less of active substance per hectare; treated at three-leaf stage; scored visually after about 3 to 4 weeks by comparison with untreated controls
Method: Seeds or rhizome pieces of monocotyledonous and dicotyledonous weeds are placed in sandy loam soil in plastic pots, covered with soil and grown in a greenhouse under good growth conditions. Three weeks after sowing, the test plants are treated at the three-leaf stage. The compounds according to the invention which were formulated as wettable powders or emulsion concentrates are sprayed, at various dosages, onto the green parts of the plants at an application rate of 600 to 800 l of water/ha (converted). After the test plants have remained in the greenhouse for about 3 to 4 weeks under optimum growth conditions, the effect of the preparations is scored visually by comparison with untreated controls. The agents according to the invention also have good herbicidal activity post-emergence against a broad spectrum of economically important weed grasses and broad-leafed weeds.

| SMILES | herbicidal activity pre-emergence [1] | melting point [°C] | herbicidal activity post-emergence [2] |
| --- | --- | --- | --- |
| CC(C)c1nc(N)nc(NC2CCN(c3ccccc3)C2=O)n1 (stereo not shown) [Example A20] | very good herbicidal activity | 210 | very good herbicidal activity |
| CC(C)(F)c1nc(N)nc(OC2CCN(c3ccccc3)C2=O)n1 (stereo not shown) [Example A55] | very good herbicidal activity | 77 | very good herbicidal activity |
| Cc1cc(N2CCC(Nc3nc(N)nc(C(C)F)n3)C2)ccc1F (stereo not shown) [Example E11] | very good herbicidal activity |  | very good herbicidal activity |
| Cc1cc(N2CCC(Nc3nc(N)nc(C(C)C)n3)C2)ccc1F (stereo not shown) [Example E12] | very good herbicidal activity |  | very good herbicidal activity |
| CC(C)(F)c1nc(N)nc(NC2CCN(c3cccc(F)c3)C2)n1 (stereo not shown) [Example E13] | very good herbicidal activity |  | very good herbicidal activity |
| CC(F)c1nc(N)nc(NC2CCN(c3cccc(F)c3)C2)n1 (stereo not shown) [Example E14] | very good herbicidal activity |  | very good herbicidal activity |
| CC(C)c1nc(N)nc(NC2CCN(c3cccc(F)c3)C2)n1 (stereo not shown) [Example E15] | very good herbicidal activity |  | very good herbicidal activity |
| CC(C)(F)c1nc(N)nc(NC2CCN(c3cccc(Cl)c3)C2)n1 (stereo not shown) [Example E16] | very good herbicidal activity |  | very good herbicidal activity |
| CC(F)c1nc(N)nc(NC2CCN(c3cccc(Cl)c3)C2)n1 (stereo not shown) [Example E17] | very good herbicidal activity |  | very good herbicidal activity |
| CC(C)c1nc(N)nc(NC2CCN(c3cccc(Cl)c3)C2)n1 (stereo not shown) [Example E18] | very good herbicidal activity |  | very good herbicidal activity |
| CC(C)(F)c1nc(N)nc(NC2CCN(c3cccc(C(F)(F)F)c3)C2)n1 (stereo not shown) [Example E19] | very good herbicidal activity |  | very good herbicidal activity |
| CC(F)c1nc(N)nc(NC2CCN(c3cccc(C(F)(F)F)c3)C2)n1 (stereo not shown) [Example E20] | very good herbicidal activity |  | very good herbicidal activity |
| CC(C)c1nc(N)nc(NC2CCN(c3cccc(C(F)(F)F)c3)C2)n1 (stereo not shown) [Example E21] | very good herbicidal activity |  | very good herbicidal activity |
| CC(C)(F)c1nc(N)nc(NC2CCN(c3cccc(OC(F)(F)F)c3)C2)n1 (stereo not shown) [Example E22] | very good herbicidal activity |  | very good herbicidal activity |
| CC(F)c1nc(N)nc(NC2CCN(c3cccc(OC(F)(F)F)c3)C2)n1 (stereo not shown) [Example E23] | very good herbicidal activity |  | very good herbicidal activity |
| CC(C)c1nc(N)nc(NC2CCN(c3cccc(OC(F)(F)F)c3)C2)n1 (stereo not shown) [Example E24] | very good herbicidal activity |  | very good herbicidal activity |
| Cc1cc(C)cc(N2CCC(Nc3nc(N)nc(C(C)(C)F)n3)C2)c1 (stereo not shown) [Example E25] | very good herbicidal activity |  | very good herbicidal activity |

| SMILES | herbicidal activity pre-emergence [1] | melting point [°C] | herbicidal activity post-emergence [2] |
| --- | --- | --- | --- |
| Cc1cc(C)cc(N2CCC(Nc3nc(N)nc(C(C)F)n3)C2)c1 (stereo not shown) [Example E26] | very good herbicidal activity |  | very good herbicidal activity |
| Cc1cc(C)cc(N2CCC(Nc3nc(N)nc(C(C)C)n3)C2)c1 (stereo not shown) [Example E27] | very good herbicidal activity |  | very good herbicidal activity |
| CN(c1nc(N)nc(C(C)(C)F)n1)C1CCN(c2cccc(C(F)(F)F)c2)C1 (stereo not shown) [Example E48] | very good herbicidal activity |  | very good herbicidal activity |
| CN(c1nc(N)nc(C(C)(C)F)n1)C1CCN(c2cccc(OC(F)(F)F)c2)C1 (stereo not shown) [Example E49] | very good herbicidal activity |  | very good herbicidal activity |
| Cc1cc(C)cc(N2CCC(N(C)c3nc(N)nc(C(C)(C)F)n3)C2)c1 (stereo not shown) [Example E50] | very good herbicidal activity |  | very good herbicidal activity |
| CN(c1nc(N)nc(C(C)(C)F)n1)C1CCN(c2cccc(Cl)c2)C1 (stereo not shown) [Example E55] | very good herbicidal activity |  | very good herbicidal activity |
| CC(F)c1nc(N)nc(N(C)C2CCN(c3cccc(C(F)(F)F)c3)C2)n1 (stereo not shown) [Example E57] | very good herbicidal activity |  | very good herbicidal activity |
| CC(F)c1nc(N)nc(N(C)C2CCN(c3cccc(OC(F)(F)F)c3)C2)n1 (stereo not shown) [Example E58] | very good herbicidal activity |  | very good herbicidal activity |
| Cc1cc(C)cc(N2CCC(N(C)c3nc(N)nc(C(C)F)n3)C2)c1 (stereo not shown) [Example E59] | very good herbicidal activity |  | very good herbicidal activity |
| CC(F)c1nc(N)nc(N(C)C2CCN(c3cccc(Cl)c3)C2)n1 (stereo not shown) [Example E64] | very good herbicidal activity |  | very good herbicidal activity |
| CC(C)c1nc(N)nc(N(C)C2CCN(c3cccc(C(F)(F)F)c3)C2)n1 (stereo not shown) [Example E66] | very good herbicidal activity |  | very good herbicidal activity |
| CC(C)c1nc(N)nc(N(C)C2CCN(c3cccc(OC(F)(F)F)c3)C2)n1 (stereo not shown) [Example E67] | very good herbicidal activity |  | very good herbicidal activity |
| Cc1cc(C)cc(N2CCC(N(C)c3nc(N)nc(C(C)C)n3)C2)c1 (stereo not shown) [Example E68] | very good herbicidal activity |  | very good herbicidal activity |
| CC(C)c1nc(N)nc(N(C)C2CCN(c3cccc(Cl)c3)C2)n1 (stereo not shown) [Example E73] | very good herbicidal activity |  | very good herbicidal activity |
| CC(F)c1nc(N)nc(OC2CCN(C(C)(C)c3cccc(Cl)c3)C2=O)n1 (stereo not shown) [Example F1] | very good herbicidal activity |  | very good herbicidal activity |
| CC(C)c1nc(N)nc(OC2CCN(C(C)(C)c3cccc(Cl)c3)C2=O)n1 (stereo not shown) [Example F2] | very good herbicidal activity |  | very good herbicidal activity |
| CC(C)(F)c1nc(N)nc(OC2CCN(C(C)(C)c3cccc(Cl)c3)C2=O)n1 (stereo not shown) [Example F3] | very good herbicidal activity |  | very good herbicidal activity |
